Reference: PMC10135050, “Neutralizing Carbapenem Resistance by Co-Administering Meropenem with Novel β-Lactam-Metallo-β-Lactamase Inhibitors” (Antibiotics, 2023)
Entries after “also recorded” stand apart in the source; their conditions may differ.

Key:
K. pneumoniae NDM = experiment: Time-kill study; assay type: cell-based; conditions: meropenem monotherapy
Experimental: Time-kill studies were performed according to previously published methods, including those described by CLSI document M26-A [62]. Briefly, an overnight culture of K. pneumoniae NDM was diluted to a 0.5 McFarland standard that correlated to approximately […]. The prepared bacterial suspensions were added to 96-well plates containing a fixed dose of 32 mg/L of BP2 and meropenem in concentrations of 0.5, 1 or 2 mg/L. Plates were incubated at 35 °C and 100 rpm shaking. A bacterial control without adding any drugs was included, and a meropenem-only control employing similar conditions. Viability counts were performed at 0, 2, 4, 6, 8, and 24 h by sampling 0.1 mL, diluting as appropriate, and spreading onto Mueller Hinton agar (MHA). These plates were incubated at 35 °C for at least 18 h. Colonies were enumerated as cfu/mL.

[1] = tested on: Escherichia coli ATCC 25922; experiment: MIC, broth microdilution and checkerboard assay; assay type: cell-based; conditions: ATCC25922, E. coli ATCC 25922, no MBL, alone, read-out: MIC MEM Alone
Experimental: (§1) The Minimum Inhibitory Concentration (MIC) of meropenem BP2 was determined utilizing the broth microdilution assay, as described by the Clinical and Laboratory Standards Institute (CLSI) antimicrobial susceptibility guidelines. The mono-therapeutic effect of each antibiotic and MBLI was evaluated across a panel of MBL-producing Enterobacterales.
(§2) The drug susceptibility profile of meropenem in combination with BP2 was studied using the checkerboard assay. This assay was used to ascertain the effect of two drugs on antimicrobial resistance targeting CRE strains. The assay was performed according to the protocol described previously and was under CLSI antimicrobial susceptibility guidelines. Briefly, twofold dilutions of meropenem with each chelator were made in Cation-adjusted Mueller Hinton Broth (CAMHB) in a 96-well microtiter plate. A 0.5 McFarland-standardized bacterial inoculum was added to each well to obtain a final volume of 100 µL per well. Thereafter, plates were incubated at 37 °C for 18 h under aerobic conditions. The checkerboard assays were performed in triplicate. The MIC was determined as the lowest concentration at which no visible growth was present. The fractional inhibitory concentration index (FICI) was calculated for each combination according to the equation FICI = FICa (MIC of drug A in combination/MIC of drug A alone) + FICb (MIC of drug B in combination/MIC of drug B alone). The FICI was interpreted as follows: synergy, FICI ≤ 0.5; additive 0.5–1; indifference, […] FICI < 4; and antagonism, FICI ≥ 4 [61].

[2] = biological target: T1, Recombinant human glyoxylase II (Glo2) (Homo sapiens, UniProt Q16775); experiment: Non-specific binding to zinc in non-MBLs, glyoxylase II activity; assay type: biochemical; conditions: concentrations up to 500 µM
T1 construct: purchased BioVision Inc., Waltham, MA, USA
Source text: Metal chelators are known to suffer from off-target specificity and as a result have been criticized as potential MBLIs in vivo [44].
The methodology has been previously described. EDTA (purchased from Merck KGaA, Darmstadt, Germany) was included as a positive control.

NDM-1 = biological target: T2, NDM-1 (Klebsiella pneumoniae, UniProt C7C422); experiment: Enzyme inhibition kinetics (nitrocefin); assay type: biochemical
T2 construct: purchased RayBiotech (RayBiotech Life Inc., Peachtree Corners, GA, USA)
T2 sequence (C7C422 29-270, looked up, species assumed): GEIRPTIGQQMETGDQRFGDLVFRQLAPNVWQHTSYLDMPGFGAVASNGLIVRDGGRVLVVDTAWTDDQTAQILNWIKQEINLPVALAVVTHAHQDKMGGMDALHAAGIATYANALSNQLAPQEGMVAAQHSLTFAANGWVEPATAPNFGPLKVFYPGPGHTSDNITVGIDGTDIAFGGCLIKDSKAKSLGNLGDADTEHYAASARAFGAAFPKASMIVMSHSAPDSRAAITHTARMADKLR
Experimental: (§3) The IC50 was calculated from the generated sigmoidal curves (Figure S1) using GraphPad Prism software version 8.0.2 (GraphPad Inc., San Diego, CA, USA), and the Ki app was calculated using the Cheng–Prusoff equation [43]. […] However, we expect that inhibitors that remove one Zn atom from the enzyme active site will be slow-acting irreversible inhibitors that would require a more detailed kinetic analysis than used here. […] Structurally, BP2 is a thiazole-containing compound, while BP1 lacks this moiety. It is unclear whether the increased inhibition activity is due to the longer distance between the chelator moiety and the lactam moiety, which is less likely to sterically hinder the chelator, or if it is the thiazole itself that boosts the interaction efficacy of the compound.
(§4) A dose-dependent enzyme inhibition assay was performed using a Biotek PowerWave XS2 (Biotek Instruments Inc., Winooski, VT, USA) plate reader. NDM-1 and VIM-2 enzymes were purchased from RayBiotech (RayBiotech Life Inc., Peachtree Corners, GA, USA). Enzymes in the quantity of 1 nM (NDM-1) or 0.5 nM (VIM-2) were used in this study with a fixed nitrocefin concentration of either 120 µM (NDM-1) or 50 µM (VIM-2) and varying BP2 concentrations ranging from 5 to 200 µM (NDM-1) and 2.5 to 300 µM (VIM-2) in 50 mM HEPES buffer supplemented with 100 µg/mL BSA and 10 µM ZnCl2. Inhibition was measured at 482 nm at 25 °C.

VIM-2 = biological target: T3, VIM-2 (Escherichia coli, UniProt Q5U7L7); experiment: Enzyme inhibition kinetics (nitrocefin); assay type: biochemical
T3 construct: purchased RayBiotech (RayBiotech Life Inc., Peachtree Corners, GA, USA)
Experimental: as §3, §4

[3] = tested on: Escherichia coli TC CARF (VIM-2); experiment: MIC, broth microdilution and checkerboard assay; assay type: cell-based; conditions: read-out: MIC BP2 Alone
Experimental: as §1, §2

[4] = tested on: Klebsiella pneumoniae USA 449 (NDM); experiment: MIC, broth microdilution and checkerboard assay; assay type: cell-based; conditions: read-out: MIC BP2 Alone
Experimental: as §1, §2

Structure (SMILES)	Increase in bacteria compared to the BP2 + meropenem-treated group (K. pneumoniae NDM) [log10]	MIC [1] [µg/mL]	Glyoxylase II activity [2]	IC50 (NDM-1; NDM-1 1 nM, nitrocefin 120 µM, mean ± SD) [µM]	Ki (NDM-1; NDM-1, Cheng–Prusoff equation, read-out: Ki app) [µM]	IC50 (VIM-2; VIM-2 0.5 nM, nitrocefin 50 µM, mean ± SD) [µM]	Ki (VIM-2; VIM-2, Cheng–Prusoff equation, read-out: Ki app) [µM]	MIC [3] [µg/mL]	MIC [4] [µg/mL]
C[C@@H](O)[C@H]1C(=O)N2C(C(=O)O)=C(S[C@@H]3CN[C@H](C(=O)N(C)C)C3)[C@H](C)[C@H]12 [Meropenem]	> 2	0.06							
CON=C(C(=O)NC1C(=O)N2C(C(=O)O)=C(COC(C)=O)CSC12)c1csc(NC(=O)CC(C(=O)OC)N2CCN(CC(=O)O)CCN(CC(=O)O)CC2)n1 (stereo in doubt) [BP2]			did not reduce the activity; also recorded: did not interact	70.7 ± 4.5	35.3	57.1 ± 2.9	30.9	> 256	> 256
